Measured values published in US6352958B1, “Cycloimido-substituted benzofused heterocyclic herbicides” (FMC Corporation, priority 1997, dated 2002).

Columns and labels:
Format in all cases: in vivo
[1] = tested on: wheat (Triticum aestivum var. Lew); assay: Preemergence herbicidal activity, wheat; settings: Rate of Application 0.3 Kg/Ha, examined after 12-17 days
Protocol: (§1) The benzofused heterocyclic compounds of this invention were tested for pre- and postemergence herbicidal activity using a variety of crops and weeds. The test plants included soybean (Glycine max var. Winchester), field corn (Zea mays var. Pioneer 3732), wheat (Triticum aestivum var. Lew), morningglory (Ipomea lacunosa or Ipomea hederacea), velvetleaf (Abutilon theophrasti), green foxtail (Setaria viridis), Johnsongrass (Sorghum halepense), blackgrass (Aloepecurus myosuroides), common chickweed (Stellaria media), and common cocklebur (Xanthium strumarium L.).
(§2) For preemergence testing, two disposable fiber flats (8 cm×15 cm×25 cm) for each rate of application of each candidate herbicide were filled to an approximate depth of 6.5 cm with steam-sterilized sandy loam soil. The soil was leveled and impressed with a template to provide five evenly spaced furrows 13 cm long and 0.5 cm deep in each flat. Seeds of soybean, wheat, corn, green foxtail, and johnsongrass were planted in the furrows of the first flat, and seeds of velvetleaf, morningglory, common chickweed, cocklebur, and blackgrass were planted in the furrows of the second flat. The five-row template was employed to firmly press the seeds into place. A topping soil of equal portions of sand and sandy loam soil was placed uniformly on top of each flat to a depth of approximately 0.5 cm. Flats for postemergence testing were prepared in the same manner except that they were planted 9-14 days prior to the preemergence flats and were placed in a greenhouse and watered, thus allowing the seeds to germinate and the foliage to develop.
(§3) In both pre- and postemergence tests, a stock solution of the candidate herbicide was prepared by dissolving 0.27 g of the compound in 20 mL of water/acetone (50/50) containing 0.5% v/v sorbitan monolaurate. For an application rate of 3000 g/ha of herbicide a 10 mL portion of the stock solution was diluted with water/acetone (50/50) to 45 mL.
(§4) The preemergence flats were initially subjected to a light water spray. The four flats were placed two by two along a conveyor belt (i.e., the two preemergence followed by the two postemergence flats). The conveyor belt fed under a spray nozzle mounted about ten inches above the post-emergent foliage. The preemergent flats were elevated on the belt so that the soil surface was at the same level below the spray nozzle as the foliage canopy of the postemergent plants. The spray of herbicidal solution was commenced and once stabilized, the flats were passed under the spray at a speed to receive a coverage equivalent of 100 L/ha. At this coverage the application rates are those shown in the above table for the individual herbicidal solutions. The preemergence flats were watered immediately thereafter, placed in the greenhouse and watered regularly at the soil surface. The postemergence flats were immediately placed in the green-house and not watered until 24 hours after treatment with the test solution. Thereafter they were regularly watered at ground level. After 12-17 days the plants were examined and the phytotoxicity data were recorded.
(§5) Phytotoxicity data were taken as percent control. Percent control was determined by a method similar to the 0 to 100 rating system disclosed in “Research Methods in Weed Science,” 2nd ed., B. Truelove, Ed.; Southern Weed Science Society; Auburn University, Auburn, Ala., 1977.

[2] = tested on: common cocklebur (Xanthium strumarium L.); assay: Preemergence herbicidal activity, cocklebur; settings: Rate of Application 0.3 Kg/Ha, examined after 12-17 days
Protocol: as §1, §2, §3, §4, §5

[3] = tested on: morningglory (Ipomea lacunosa or Ipomea hederacea); assay: Postemergence herbicidal activity, morningglory; settings: rate of application 0.3 Kg/Ha, rated after 12-17 days
Protocol: as §1, §2, §3, §4, §5

[4] = tested on: wheat (Triticum aestivum var. Lew); assay: Postemergence herbicidal activity, wheat; settings: rate of application 0.3 Kg/Ha, rated after 12-17 days
Protocol: as §1, §2, §3, §4, §5

[5] = tested on: soybean (Glycine max var. Winchester); assay: Preemergence herbicidal activity, soybean; settings: Rate of Application 0.3 Kg/Ha, examined after 12-17 days
Protocol: as §1, §2, §3, §4, §5

[6] = tested on: velvetleaf (Abutilon theophrasti); assay: Postemergence herbicidal activity, velvetleaf; settings: rate of application 0.3 Kg/Ha, rated after 12-17 days
Protocol: as §1, §2, §3, §4, §5

[7] = tested on: soybean (Glycine max var. Winchester); assay: Postemergence herbicidal activity, soybean; settings: rate of application 0.3 Kg/Ha, rated after 12-17 days
Protocol: as §1, §2, §3, §4, §5

[8] = tested on: Johnsongrass (Sorghum halepense); assay: Postemergence herbicidal activity, johnsongrass; settings: rate of application 0.3 Kg/Ha, rated after 12-17 days
Protocol: as §1, §2, §3, §4, §5

[9] = tested on: green foxtail (Setaria viridis); assay: Postemergence herbicidal activity, green foxtail; settings: rate of application 0.3 Kg/Ha, rated after 12-17 days
Protocol: as §1, §2, §3, §4, §5

[10] = tested on: field corn (Zea mays var. Pioneer 3732); assay: Postemergence herbicidal activity, corn; settings: rate of application 0.3 Kg/Ha, rated after 12-17 days
Protocol: as §1, §2, §3, §4, §5

[11] = tested on: velvetleaf (Abutilon theophrasti); assay: Preemergence herbicidal activity, velvetleaf; settings: Rate of Application 0.3 Kg/Ha, examined after 12-17 days
Protocol: as §1, §2, §3, §4, §5

[12] = tested on: field corn (Zea mays var. Pioneer 3732); assay: Preemergence herbicidal activity, corn; settings: Rate of Application 0.3 Kg/Ha, examined after 12-17 days
Protocol: as §1, §2, §3, §4, §5

[13] = tested on: common chickweed (Stellaria media); assay: Preemergence herbicidal activity, chickweed; settings: Rate of Application 0.3 Kg/Ha, examined after 12-17 days
Protocol: as §1, §2, §3, §4, §5

[14] = tested on: green foxtail (Setaria viridis); assay: Preemergence herbicidal activity, green foxtail; settings: Rate of Application 0.3 Kg/Ha, examined after 12-17 days
Protocol: as §1, §2, §3, §4, §5

[15] = tested on: common cocklebur (Xanthium strumarium L.); assay: Postemergence herbicidal activity, cocklebur; settings: rate of application 0.3 Kg/Ha, rated after 12-17 days
Protocol: as §1, §2, §3, §4, §5

[16] = tested on: morningglory (Ipomea lacunosa or Ipomea hederacea); assay: Preemergence herbicidal activity, morningglory; settings: Rate of Application 0.3 Kg/Ha, examined after 12-17 days
Protocol: as §1, §2, §3, §4, §5

[17] = tested on: Johnsongrass (Sorghum halepense); assay: Preemergence herbicidal activity, johnsongrass; settings: Rate of Application 0.3 Kg/Ha, examined after 12-17 days
Protocol: as §1, §2, §3, §4, §5

[18] = tested on: common chickweed (Stellaria media); assay: Postemergence herbicidal activity, chickweed; settings: rate of application 0.3 Kg/Ha, rated after 12-17 days
Protocol: as §1, §2, §3, §4, §5

[19] = tested on: blackgrass (Aloepecurus myosuroides); assay: Preemergence herbicidal activity, blackgrass; settings: Alopecurus myosuroides, pre-emergence, Rate of Application 0.3 Kg/Ha, examined after 12-17 days, read-out: PREEMERGENCE HERBICIDAL ACTIVITY (% CONTROL) ALOMY
Protocol: as §1, §2, §3, §4, §5

| SMILES | PREEMERGENCE HERBICIDAL ACTIVITY (% CONTROL) WHT [1] [%] | PREEMERGENCE HERBICIDAL ACTIVITY (% CONTROL) XANPE [2] [%] | Postemergence herbicidal activity (% control) IPOSS [3] [%] | Postemergence herbicidal activity (% control) WHT [4] [%] | PREEMERGENCE HERBICIDAL ACTIVITY (% CONTROL) SOY [5] [%] | Postemergence herbicidal activity (% control) ABUTH [6] [%] | Postemergence herbicidal activity (% control) SOY [7] [%] | Postemergence herbicidal activity (% control) SORHA [8] [%] | Postemergence herbicidal activity (% control) SETVI [9] [%] | Postemergence herbicidal activity (% control) CRN [10] [%] | PREEMERGENCE HERBICIDAL ACTIVITY (% CONTROL) ABUTH [11] [%] | PREEMERGENCE HERBICIDAL ACTIVITY (% CONTROL) CRN [12] [%] | PREEMERGENCE HERBICIDAL ACTIVITY (% CONTROL) STEME [13] [%] | PREEMERGENCE HERBICIDAL ACTIVITY (% CONTROL) SETVI [14] [%] | Postemergence herbicidal activity (% control) XANPE [15] [%] | PREEMERGENCE HERBICIDAL ACTIVITY (% CONTROL) IPOSS [16] [%] | PREEMERGENCE HERBICIDAL ACTIVITY (% CONTROL) SORHA [17] [%] | Postemergence herbicidal activity (% control) STEME [18] [%] | also measured |
| --- | --- | --- | --- | --- | --- | --- | --- | --- | --- | --- | --- | --- | --- | --- | --- | --- | --- | --- | --- |
| CCCCc1cc2c(Cl)ccc(-n3c(=O)cc(C(F)(F)F)n(C)c3=O)c2o1 [Compound 225] | 20 | 50 | 75 | 30 | 40 | 100 | 60 | 60 | 90 | 60 | 90 | 30 | 70 | 100 | 70 | 50 | 60 | – | – |
| CC(=O)OC(C)(C)c1cc2c(Cl)cc(F)c(-n3c(=O)cc(C(F)(F)F)n(C)c3=O)c2o1 [Compound 253] | 95 | – | 100 | 100 | 100 | 100 | 95 | 100 | 100 | 100 | 100 | 100 | 100 | 100 | 100 | 100 | 100 | 100 | – |
| CCOC(=O)c1cc2c(Cl)ccc(-n3c(=O)cc(C(F)(F)F)n(C)c3=O)c2o1 [Compound 268] | 30 | 0 | 90 | 40 | 30 | 50 | 70 | 40 | 70 | 60 | 100 | 50 | 20 | 60 | – | 95 | 60 | 20 | – |
| CC(=O)OC(C)(C)c1nc2c(-n3c(=O)cc(C(F)(F)F)n(C)c3=O)c(F)cc(Br)c2o1 [Compound 104, 1-METHYL-6-TRIFLUOROMETHYL-3-[7-BROMO-5-FLUORO-2-(2-METHYLCARBONYLOXYPROP-2-YL)BENZOXAZOL-4-YL]-2,4(1 H,3H)-PYRIMIDINEDIONE] | – | – | – | – | – | – | – | – | – | – | – | – | – | – | – | – | – | – | inhibition at 300 g/ha ([1]; Triticum aestivum, pre-emergence, read-out: PREEMERGENCE HERBICIDAL ACTIVITY (% CONTROL) WHT): 100%; inhibition at 300 g/ha ([2]; Xanthium strumarium, pre-emergence, read-out: PREEMERGENCE HERBICIDAL ACTIVITY (% CONTROL) XANPE): 100%; inhibition at 300 g/ha ([3]; Ipomoea, post-emergence, read-out: Postemergence herbicidal activity (% control) IPOSS): 100%; inhibition at 300 g/ha ([4]; Triticum aestivum, post-emergence, read-out: Postemergence herbicidal activity (% control) WHT): 100%; inhibition at 300 g/ha ([5]; Glycine max, pre-emergence, read-out: PREEMERGENCE HERBICIDAL ACTIVITY (% CONTROL) SOY): 100%; inhibition at 300 g/ha ([6]; Abutilon theophrasti, post-emergence, read-out: Postemergence herbicidal activity (% control) ABUTH): 100%; inhibition at 300 g/ha ([7]; Glycine max, post-emergence, read-out: Postemergence herbicidal activity (% control) SOY): 100%; inhibition at 300 g/ha ([8]; Sorghum halepense, post-emergence, read-out: Postemergence herbicidal activity (% control) SORHA): 100%; inhibition at 300 g/ha ([9]; Setaria viridis, post-emergence, read-out: Postemergence herbicidal activity (% control) SETVI): 100%; inhibition at 300 g/ha [19]: 100%; inhibition at 300 g/ha ([10]; Zea mays, post-emergence, read-out: Postemergence herbicidal activity (% control) CRN): 100%; inhibition at 300 g/ha ([11]; Abutilon theophrasti, pre-emergence, read-out: PREEMERGENCE HERBICIDAL ACTIVITY (% CONTROL) ABUTH): 100%; inhibition at 300 g/ha ([12]; Zea mays, pre-emergence, read-out: PREEMERGENCE HERBICIDAL ACTIVITY (% CONTROL) CRN): 100%; inhibition at 300 g/ha ([14]; Setaria viridis, pre-emergence, read-out: PREEMERGENCE HERBICIDAL ACTIVITY (% CONTROL) SETVI): 100%; inhibition at 300 g/ha ([16]; Ipomoea, pre-emergence, read-out: PREEMERGENCE HERBICIDAL ACTIVITY (% CONTROL) IPOSS): 100%; inhibition at 300 g/ha ([17]; Sorghum halepense, pre-emergence, read-out: PREEMERGENCE HERBICIDAL ACTIVITY (% CONTROL) SORHA): 100% |
